Reference: ChEMBL document CHEMBL5390223, “Strategies for the Discovery of Oxazolidinone Antibacterial Agents: Development and Future Perspectives” (J Med Chem, 2023)
Values after ≈ are worked out from the molar mass of the structure shown.

What was measured:
[1] = test system: Mycobacterium tuberculosis variant bovis; test: Antimycobacterial activity against Mycobacterium tuberculosis H37Rv assessed as reduction in bacterial cell growth; format: functional
[2] = test system: Mycobacterium tuberculosis variant bovis; test: Antimycobacterial activity against Mycobacterium tuberculosis H37Rv assessed as reduction in bacterial growth by MABA assay; format: functional

SMILES	MIC [1]	MIC [2]
CC(=O)NC[C@H]1CN(c2ccc(N3CCSCC3)c(F)c2)C(=O)O1 [SUTEZOLID]	0.125 µg/mL (≈ 0.354 µM)	–
CC(=O)NC[C@H]1CN(c2ccc(N3CCOCC3)c(F)c2)C(=O)O1 [LINEZOLID]	–	0.5 µg/mL (≈ 1.48 µM)
